Source: article PMC12486440, “Design, synthesis, and in silico studies of new benzofuran–pyrazole hybrids as multi-kinase inhibitors with potential antiproliferative activity” (RSC Advances, 2025)

What was measured:
COLO 205 = conditions: Homo sapiens, COLO 205
MCF-7 cancer cells = experiment: Cell cycle analysis (PI flow cytometry); type: cell-based, human; conditions: GI50 concentration 2.75 μM, 48 h
Protocol: More details are presented in the SI.
Given that 3d has emerged as a well-balanced active compound that functions as both an anticancer agent and a multi-targeting protein kinase suppressor, it was of interest to gain a deeper understanding of how 3d inhibits the growth of cancer cells. A propidium iodide (PI) staining experiment was performed in this study to look at its effect on cell cycle distribution and apoptosis activation.[81,82]
This blocked cell cycle passage at the G0–G1 stage can stop cells from dividing and growing, which is in line with that shown by other tests about the ability of compound 3d to stop cell division and growth (Fig. 3). […]
minute reaction, 50 μl of Kinase-Glo Max reagent was added to each well. […] 10) Luminescence was measured using the microplate reader. […]
The protocol of the experiment depends on the dilution of the enzyme, substrate, ATP, and inhibitors in kinase buffer. […] Then, luminescence (integration time 0.5–1 second) was recorded according to the manufacturer’s instructions. […]
Further exploration of the cytotoxic activity of compound 3d was performed using propidium iodide (PI) flow cytomertric analysis to measure the extent of PI that binds to DNA of dead cells with permeable plasma membranes to determine cell cycle status in tissue culture quantitate cell death at all cell phases. […]

Pim-1 = Pim-1 (Homo sapiens, UniProt P11309); experiment: PIM kinase inhibitory assay (ADP-Glo); type: biochemical
Protocol: against the PIM enzyme using the ADP‐Glo™ Kinase Assay.
The protocol of the experiment depends on the dilution of the enzyme, substrate, ATP, and inhibitors in kinase buffer. Then, 1 μl of the inhibitor (5% DMSO), 2 μl of the enzyme, and 2 μl
temperature for 60 minutes. Then, 5 μl of ADP‐Glo™ Reagent was added and incubated at room temperature for 40 minutes. 10 μl of the kinase detection reagent was added and incubated at room temperature for 30 minutes. Then, luminescence (integration time 0.5–1 second) was recorded according to the manufacturer’s instructions.

HOP-92 = conditions: Homo sapiens, HOP-92
CCRF-CEM = conditions: Homo sapiens, CCRF-CEM
Prostate cancer subpanel = experiment: NCI 60 subpanel summary; type: cell-based, human
HL-60(TB) = experiment: cells; conditions: Homo sapiens
[1] = single dose 10 μM, colon cancer
[2] = single dose 10 μM, non-small lung carcinoma
[3] = single dose 10 μM, ovarian carcinoma
[4] = single dose 10 μM, renal carcinoma

Pim-1, sequence (P11309 whole entry): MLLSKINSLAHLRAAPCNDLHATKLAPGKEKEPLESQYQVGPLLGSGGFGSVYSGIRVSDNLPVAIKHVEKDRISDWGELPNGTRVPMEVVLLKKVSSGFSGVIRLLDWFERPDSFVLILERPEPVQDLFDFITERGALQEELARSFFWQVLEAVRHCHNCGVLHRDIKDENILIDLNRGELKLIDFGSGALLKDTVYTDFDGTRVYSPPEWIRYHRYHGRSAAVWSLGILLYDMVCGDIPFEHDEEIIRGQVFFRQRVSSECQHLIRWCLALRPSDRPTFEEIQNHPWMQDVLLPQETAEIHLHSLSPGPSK

`c1ccc(-n2cc(C3CC(c4nc5ccccc5[nH]4)=NN3)c(-c3cc4ccccc4o3)n2)cc1` (stereo not shown) [3d, 3-(Benzofuran-2-yl)-4-(3-(1H-benzo[d]imidazol-2-yl)-4,5-dihydro-1H-pyrazol-5-yl)-1-phenyl-1H-pyrazole] showed a GI50 (SNB-75; Homo sapiens, SNB-75) of 2.72 µM, a GI% (SNB-75; single dose 10 μM, CNS cancer) of 65.51% and a GI50 (COLO 205) of 5.28 µM. The GI50 (K-562; Homo sapiens, K562) was 3.37 µM, the GI% (K-562; single dose 10 μM, leukemia) was 92.52% and the “cell percentage in the G2/M stage” value (MCF-7 cancer cells; control […]) was 15.9%. For the same molecule, the “percentage of cells in the G0–G1 phase” value (MCF-7 cancer cells; untreated 48.39%) was 61.03%, the GI50 (SW-620; Homo sapiens, SW-620) was 5.95 µM and the GI% (SW-620; [1]) was 76.92%. The IC50 (Pim-1) was 2.37 µM, the “times less sensitive, Pim-1, than to staurosporine” value (Pim-1; ratio of IC50 values) was 4.9 and the GI50 (HOP-92) was 4.78 µM. It also gave a GI50 (MOLT-4; Homo sapiens, MOLT-4) of 4.13 µM, a GI% (MOLT-4; single dose 10 μM, leukemia) of 88.75% and a GI50 (NCI-H522; Homo sapiens, NCI-H522) of 3.48 µM. For the same molecule, the GI% (NCI-H522; [2]) was 96.77%, the GI50 (IGROV1; Homo sapiens, IGROV-1) was 3.34 µM and the GI% (IGROV1; [3]) was 89.61%. It also gave a GI50 (HCT-15; Homo sapiens, HCT-15) of 3.18 µM, a GI% (HCT-15; [1]) of 83.02% and a GI50 (CCRF-CEM) of 3.11 µM. The GI50 (EKVX; Homo sapiens, EKVX) was 2.69 µM, the GI% (EKVX; [2]) was 78.25% and the GI50 (SN12C; Homo sapiens, SN12C) was 3.42 µM. For the same molecule, the GI% (SN12C; [4]) was 88.17%, the GI50 (SR; Homo sapiens, SR) was 3.15 µM and the GI% (SR; single dose 10 μM, leukemia) was 91.17%. For the same molecule, the GI50 (Prostate cancer subpanel; Homo sapiens, subpanel mean graph midpoint, read-out: MG-MID (GI50)) was 4.31 µM, the Selectivity index (Prostate cancer subpanel; full panel MG-MID / subpanel MG-MID) was 0.97 and the GI50 (CAKI-1; Homo sapiens, CAKI-1) was 2.57 µM. It also gave a GI% (CAKI-1; [4]) of 92.45%, a GI50 (OVCAR-8; Homo sapiens, OVCAR-8) of 5.88 µM and a GI% (OVCAR-8; [3]) of 86.94%. It also gave a GI50 (OVCAR-4; Homo sapiens, OVCAR-4) of 3.51 µM, a GI% (OVCAR-4; [3]) of 66.52% and a GI50 (HL-60(TB)) of 2.56 µM. For the same molecule, the GI50 (SK-MEL-5; Homo sapiens, SK-MEL-5) was 2.76 µM, the GI% (SK-MEL-5; single dose 10 μM, melanoma) was 90.42% and the GI50 (OVCAR-5; Homo sapiens, OVCAR-5) was 5.52 µM. It also gave a GI% (OVCAR-5; [3]) of 66.23%.
